Reference: article PMC8508980, “Design, Synthesis and Anticancer Profile of New 4-(1H-benzo[d]imidazol-1-yl)pyrimidin-2-amine-Linked Sulfonamide Derivatives with V600EBRAF Inhibitory Effect” (International Journal of Molecular Sciences, 2021)

Experiments:
NCI-H23 = test: NCI 60 cell line screen; format: cell-based, human; conditions: for activity at 10 µM: Homo sapiens, NCI-H23, Non-Small Cell Lung Cancer, read-out: Percent growth
Outline: (§1)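 Read-out was SRB staining of TCA-fixed cells at 515 nm, with growth computed against time-zero (Tz) and untreated control plates; TGI was taken where Ti = Tz. Drugs were tested at five concentrations up to 10 µM for 48 h at 37 °C, added 24 h after plating in RPMI 1640/5% FBS.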

MOLT-4 = test: NCI 60 cell line screen; format: cell-based, human; conditions: for activity at 10 µM: Homo sapiens, MOLT-4, Leukemia, read-out: Percent growth; for percent inhibition: MOLT-4, NCI-60 heat map analysis
Outline: (§2)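 Cells seeded, incubated 24 h, then a time-zero plate fixed with TCA. Drug added at five concentrations up to 10 µM for 48 h at 37 °C. Cells fixed with TCA (16% for suspension lines), stained with SRB, absorbance read at 515 nm.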

K-562 = test: NCI 60 cell line screen; format: cell-based, human; conditions: Homo sapiens, K562; K-562, Leukemia; read-out: Percent growth
Outline: as §1

HCT-15 = test: NCI 60 cell line screen; format: cell-based, human; conditions: for activity at 10 µM: Homo sapiens, HCT-15, Colon Cancer, read-out: Percent growth; for percent inhibition: HCT-15, NCI-60 heat map analysis
Outline: as §1

SK-MEL-5 = test: NCI 60 cell line screen; format: cell-based, human; conditions: for activity at 10 µM: Homo sapiens, SK-MEL-5, Melanoma, read-out: Percent growth; for percent inhibition: SK-MEL-5, NCI-60 heat map analysis
Outline: as §2

NCI-H460 = test: NCI 60 cell line screen; format: cell-based, human; conditions: for activity at 10 µM: Homo sapiens, NCI-H460, Non-Small Cell Lung Cancer, read-out: Percent growth
Outline: as §1

RXF 393 = test: NCI 60 cell line screen; format: cell-based, human; conditions: for activity at 10 µM: Homo sapiens, RXF 393, Renal Cancer, read-out: Percent growth
Outline: as §1

KM12 = test: NCI 60 cell line screen; format: cell-based, human; conditions: for activity at 10 µM: Homo sapiens, KM12, Colon Cancer, read-out: Percent growth; for percent inhibition: KM12, NCI-60 heat map analysis
Outline: as §2

SF-295 = test: NCI 60 cell line screen; format: cell-based, human; conditions: for activity at 10 µM: Homo sapiens, SF-295, CNS-Cancer, read-out: Percent growth
Outline: as §1

SR = test: NCI 60 cell line screen; format: cell-based, human; conditions: for activity at 10 µM: Homo sapiens, Leukemia, read-out: Percent growth; for percent inhibition: NCI-60 heat map analysis
Outline: as §2

HT29 = test: NCI 60 cell line screen; format: cell-based, human; conditions: for activity at 10 µM: Homo sapiens, HT-29, HT29, Colon Cancer, read-out: Percent growth
Outline: as §1

V600EBRAF = biological target: T1, V600EBRAF (Homo sapiens, UniProt P15056, V600E); test: Reaction Biology kinase HotSpot enzyme assay; format: biochemical; conditions: 1 µM ATP; for IC50: mean ± S.D. of two separate experiments; for % Inhibition at 1 µM over V600EBRAF / inhibition at 1 µM: single dose 1 µM, mean ± S.D. of two experiments; for inhibition at 1 µM: read-out: % Inhibition at 1 µM over V600EBRAF
T1 construct: purchased Reaction Biology Corp. (Kinase HotSpot service)
Method: Reaction Biology Corp. Kinase HotSpotTM service
Proﬁler Express for IC50 measurement. Assay protocol: In a ﬁnal reaction volume of 25 μL, kinase (5–10 mU) is incubated with 25 mM Tris pH 7.5, 0.02 mM EGTA, 0.66 mg/mL myelin basic protein, 10 mM magnesium acetate and [γ33P-ATP] (speciﬁc activity approx. 500 cpm/pmol, concentration as required). The reaction is initiated by the addition of the Mg-ATP mix. After incubation for 40 min at room temperature, the reaction is stopped by the addition of 5 μL of a 3% phosphoric acid solution. 10 μL of the reaction is then spotted onto a P30 ﬁltermat, and washed three times for 5 min in 75 mM phosphoric acid and once in methanol prior to drying and scintillation counting.

T1 sequence (P15056 whole entry V600E): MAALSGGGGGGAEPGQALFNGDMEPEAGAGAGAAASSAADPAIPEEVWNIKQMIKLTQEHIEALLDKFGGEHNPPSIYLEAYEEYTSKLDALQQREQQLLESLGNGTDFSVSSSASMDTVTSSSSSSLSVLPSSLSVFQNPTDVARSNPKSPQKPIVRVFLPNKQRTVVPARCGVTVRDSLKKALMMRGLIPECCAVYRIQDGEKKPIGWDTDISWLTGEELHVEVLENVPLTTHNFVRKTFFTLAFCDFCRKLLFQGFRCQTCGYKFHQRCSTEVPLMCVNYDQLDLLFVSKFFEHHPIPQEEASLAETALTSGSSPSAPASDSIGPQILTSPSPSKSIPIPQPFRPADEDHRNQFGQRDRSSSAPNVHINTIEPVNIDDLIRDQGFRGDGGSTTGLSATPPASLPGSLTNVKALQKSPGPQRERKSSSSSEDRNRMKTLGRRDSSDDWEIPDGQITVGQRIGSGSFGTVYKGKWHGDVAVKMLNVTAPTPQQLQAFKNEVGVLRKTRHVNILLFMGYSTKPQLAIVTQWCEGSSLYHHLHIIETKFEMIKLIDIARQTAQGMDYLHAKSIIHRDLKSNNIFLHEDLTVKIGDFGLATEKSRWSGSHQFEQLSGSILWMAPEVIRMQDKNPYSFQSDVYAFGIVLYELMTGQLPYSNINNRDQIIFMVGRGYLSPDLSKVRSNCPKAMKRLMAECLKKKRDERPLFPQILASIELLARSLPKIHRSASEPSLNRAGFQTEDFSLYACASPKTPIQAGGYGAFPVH

| SMILES | activity at 10 µM (NCI-H23) [%] | activity at 10 µM (MOLT-4) [%] | activity at 10 µM (K-562) [%] | activity at 10 µM (HCT-15) [%] | activity at 10 µM (SK-MEL-5) [%] | percent inhibition (SK-MEL-5) [%] | activity at 10 µM (NCI-H460) [%] | activity at 10 µM (RXF 393) [%] | activity at 10 µM (KM12) [%] | activity at 10 µM (SF-295) [%] | activity at 10 µM (SR) [%] | activity at 10 µM (HT29) [%] | IC50 (V600EBRAF) [nM] | % Inhibition at 1 µM over V600EBRAF (V600EBRAF) [%] | inhibition at 1 µM (V600EBRAF) [%] | further results |
| --- | --- | --- | --- | --- | --- | --- | --- | --- | --- | --- | --- | --- | --- | --- | --- | --- |
| Cc1ccc(S(=O)(=O)NCCNc2nccc(-n3cnc4ccccc43)n2)cc1 [12g, N-(2-((4-(1H-benzo [d]imidazol-1-yl)pyrimidin-2-yl)amino)ethyl)-4-methyl benzenesulfonamide] | 74.6 | 55.3 | 56.1 | 80.2 | 20.8 | 80 | 79 | 55.4 | 77.4 | 75.5 | 53.6 | 90.2 | 790 ± 42 | 82.11 ± 0.32 | 82 | percent inhibition (MOLT-4): around 45%; percent inhibition (SR): around 45% |
| O=S(=O)(NCCCNc1nccc(-n2cnc3ccccc32)n1)c1ccc(C(F)(F)F)cc1 [12l, N-(3-((4-(1H-benzo [d]imidazol-1-yl)pyrimidin-2-yl)amino)propyl)-4-(trifluoromethyl) benzenesulfonamide] | 82.5 | 38.4 | 33.9 | 53.8 | 29.9 | 70 | 79.3 | 43.8 | 51.7 | 69.8 | 58 | 54.6 | 490 ± 61 | 98.75 ± 0.58 | 99 | percent inhibition (HCT-15): more than 40%; percent inhibition (RXF 393; RXF 393, NCI-60 heat map analysis): 57%; percent inhibition (HT29; HT29, NCI-60 heat map analysis): more than 40% |
| COc1ccc(S(=O)(=O)NCCCNc2nccc(-n3cnc4ccccc43)n2)cc1 [12m, N-(3-((4-(1H-benzo [d]imidazol-1-yl)pyrimidin-2-yl)amino)propyl)-4-methoxy benzenesulfonamide] | 91.9 | 77 | 78.8 | 92.3 | 70.1 |  | 97.3 | 80.6 | 84.1 | 90.5 | 77.6 | 99.7 | 820 ± 48 | 51.26 ± 0.29 | 51 |  |
| O=S(=O)(NCCNc1nccc(-n2cnc3ccccc32)n1)c1ccc(Br)cc1 [12d, N-(2-((4-(1H-benzo [d]imidazol-1-yl)pyrimidin-2-yl)amino)ethyl)-4-bromobenzenesulfonamide] | 97.3 | 95.9 | 88.4 | 95.7 | 89.1 |  | 101 | 101 | 85.4 | 96.5 | 75.1 | 97.2 | 910 ± 19 | 69.28 ± 0.51 | 69 |  |
| O=S(=O)(NCCCNc1nccc(-n2cnc3ccccc32)n1)c1ccc(Cl)cc1 [12j, N-(3-((4-(1H-benzo [d]imidazol-1-yl)pyrimidin-2-yl)amino)propyl)-4-chloro benzenesulfonamide] | 97.1 | 82.3 | 79.2 | 93.1 | 76.2 |  | 99.8 | 124 | 92 | 97.8 | 81.5 | 104 | 790 ± 51 | 88.14 ± 0.19 | 88 |  |
| O=S(=O)(NCCCNc1nccc(-n2cnc3ccccc32)n1)c1ccc(F)cc1 [12i, N-(3-((4-(1H-benzo [d]imidazol-1-yl)pyrimidin-2-yl)amino)propyl)-4-fluorobenzenesulfonamide] | 70.4 | 33.2 | 37.2 | 82.8 | 2.63 | 97 | 79.7 | 163 | 48.9 | 70.6 | 36.8 | 92.8 | 530 ± 22 | 97.81 ± 0.82 | 98 | percent inhibition (KM12): around 50% |
| O=S(=O)(NCCNc1nccc(-n2cnc3ccccc32)n1)c1ccc(C(F)(F)F)cc1 [12e, N-(2-((4-(1H-benzo [d]imidazol-1-yl)pyrimidin-2-yl)amino)ethyl)-4-(trifluoromethyl)benzenesulfonamide] | 54.5 | 45.2 | 40.8 | 60.7 | 8.48 | 91 | 57.8 | 38.2 | 58.7 | 44.7 | 35.5 | 68 | 620 ± 31 | 98.24 ± 0.44 | 98 | percent inhibition (NCI-H23; NCI-H23, NCI-60 heat map analysis): around 40%; percent inhibition (MOLT-4): 55%; percent inhibition (HCT-15): around 40%; percent inhibition (NCI-H460; NCI-H460, NCI-60 heat map analysis): around 40%; percent inhibition (KM12): around 40%; percent inhibition (SF-295; SF-295, NCI-60 heat map analysis): more than 50%; percent inhibition (SR): 65% |
| O=S(=O)(NCCNc1nccc(-n2cnc3ccccc32)n1)c1ccc(F)cc1 [12b, N-(2-((4-(1H-benzo [d]imidazol-1-yl)pyrimidin-2-yl)amino)ethyl)-4-fluorobenzenesulfonamide] | 95.8 | 90.5 | 84 | 100 | 78 |  | 96.3 | 106 | 73.4 | 93.6 | 85.8 | 94.4 | 740 ± 51 | 75.17 ± 0.27 | 75 |  |
